Test results reported in ChEMBL document CHEMBL1154213, “Composition of the fresh leaves and stems of Melissa officinalis and evaluation of skin irritation in a reconstituted human epidermis model” (J Nat Prod, 2009).
In brackets after ≈: the same amount, converted by molar mass. Values belong to the molecule of their own block, whether it stands above or below them. Activity calls are given as the source filed them. The calls are words filed in the database; no cut-off is given here.

Experiments:
[1] = tested on: Radical scavenging activity; assay: Antioxidant activity assessed as DPPH radical scavenging activity; format: functional
[2] = tested on: Homo sapiens; assay: Antiinflammatory activity against reconstituted human epidermis model assessed as inhibition of IL1-alpha release measured after 15 mins of topical exposure followed by 42 hrs of recovery by ELISA; format: functional; details: Skin epidermis
[3] = Cytotoxicity against human reconstituted epidermal cells at 17.1 mM after 15 mins of topical exposure followed by 42 hrs of recovery by MTT assay; format: cell-based; details: 0.25 h, 17100 µM
[4] = tested on: Skin epidermis; assay: Reduction of trans epithelial electrical resistance in human reconstituted epidermis after 15 mins of topical exposure followed by 42 hrs of recovery; format: functional
[5] = tested on: Pseudomonas aeruginosa; assay: Antimicrobial activity against Pseudomonas aeruginosa ATCC 9027 after 48 hrs by broth dilution method; format: functional; details: ATCC 9027, 48 h
[6] = tested on: Pseudomonas aeruginosa; assay: Antimicrobial activity against Pseudomonas aeruginosa ATCC 9027 after 24 hrs by broth dilution method; format: functional; details: ATCC 9027, 24 h
[7] = tested on: Staphylococcus aureus; assay: Antimicrobial activity against Staphylococcus aureus ATCC 6538 after 48 hrs by broth dilution method; format: functional; details: ATCC 6538, 48 h
[8] = tested on: Staphylococcus epidermidis; assay: Antimicrobial activity against Staphylococcus epidermidis ATCC 12228 after 48 hrs by broth dilution method; format: functional; details: ATCC 12228, 48 h
[9] = tested on: Staphylococcus aureus; assay: Antimicrobial activity against Staphylococcus aureus ATCC 6538 after 24 hrs by broth dilution method; format: functional; details: ATCC 6538, 24 h
[10] = tested on: Candida albicans; assay: Antimicrobial activity against Candida albicans ATCC 10231 after 24 hrs by broth dilution method; format: functional; details: ATCC 10231, 24 h
[11] = tested on: Aspergillus niger; assay: Antimicrobial activity against Aspergillus niger ATCC 16404 after 24 hrs by broth dilution method; format: functional; details: ATCC 16404, 24 h
[12] = tested on: Escherichia coli; assay: Antimicrobial activity against Escherichia coli ATCC 8739 after 48 hrs by broth dilution method; format: functional, organism-based
[13] = tested on: Escherichia coli; assay: Antimicrobial activity against Escherichia coli ATCC 8739 after 24 hrs by broth dilution method; format: functional, organism-based
[14] = tested on: Bacillus spizizenii; assay: Antimicrobial activity against Bacillus spizizenii ATCC 6633 after 48 hrs by broth dilution method; format: functional; details: ATCC 6633, 48 h
[15] = tested on: Candida albicans; assay: Antimicrobial activity against Candida albicans ATCC 10231 after 5 days by broth dilution method; format: functional, organism-based
[16] = tested on: Staphylococcus epidermidis; assay: Antimicrobial activity against Staphylococcus epidermidis ATCC 12228 after 24 hrs by broth dilution method; format: functional; details: ATCC 12228, 24 h
[17] = tested on: Aspergillus niger; assay: Antimicrobial activity against Aspergillus niger ATCC 16404 after 5 days by broth dilution method; format: functional, organism-based
[18] = tested on: Bacillus spizizenii; assay: Antimicrobial activity against Bacillus spizizenii ATCC 6633 after 24 hrs by broth dilution method; format: functional

Structure (SMILES): C[C@@H]1CC[C@]2(C(=O)O)CC[C@]3(C)C(=CC[C@@H]4[C@@]5(C)C[C@@H](O)[C@H](O)[C@@](C)(COS(=O)(=O)O)[C@@H]5CC[C@]43C)[C@@H]2[C@]1(C)O
- Activity [1]: inactive
- Activity [2]: Non-toxic
- Activity [3]: > 75%
- Activity [4]: Non-toxic

Structure (SMILES): C[C@@H]1CC[C@]2(C(=O)O[C@@H]3O[C@H](CO)[C@@H](O)[C@H](O)[C@H]3O)CC[C@]3(C)C(=CC[C@@H]4[C@@]5(C)C[C@@H](O)[C@H](O)[C@@](C)(COS(=O)(=O)O)[C@@H]5CC[C@]43C)[C@@H]2[C@]1(C)O
- Activity [1]: inactive

- EC50 [1]: 17.8 µM
Structure (SMILES): O=C(O)/C=C/c1ccc(O)c(O)c1 [CAFFEIC ACID]

- EC50 [1]: 8 µM
- MIC [6]: 2000 µg/mL (≈ 5.55 mM)
- MIC [9]: 120 µg/mL (≈ 0.333 mM)
- MIC [10]: 2000 µg/mL (≈ 5.55 mM)
- MIC [11]: 4000 µg/mL (≈ 11.1 mM)
- MIC [13]: inactive
- MIC [16]: 120 µg/mL (≈ 0.333 mM)
- MIC [18]: 4000 µg/mL (≈ 11.1 mM)
Structure (SMILES): O=C(/C=C/c1ccc(O)c(O)c1)O[C@H](Cc1ccc(O)c(O)c1)C(=O)O [ROSMARINIC ACID]
- MBC [5]: 4000 µg/mL (≈ 11.1 mM)
- MBC [7]: 120 µg/mL (≈ 0.333 mM)
- MBC [8]: 1000 µg/mL (≈ 2.78 mM)
- MBC [12]: inactive
- MBC [14]: 4000 µg/mL (≈ 11.1 mM)
- MBC [15]: inactive
- MBC [17]: inactive
